In article PMC7859449, “Short Chain (≤C4) Esterification Increases Bioavailability of Rosmarinic Acid and Its Potency to Inhibit Vascular Smooth Muscle Cell Proliferation” (Frontiers in Pharmacology, 2021):
“And” between values parts separate entries of the source, which are not always exact repeats. Equal values may be shown once. Read-outs that look alike come from different tables or passages of the source.

How the values were obtained:
[1] = system: PDGF-BB-induced VSMC proliferation; experiment: Proliferation assay (resazurin conversion) in PDGF-BB-stimulated VSMC; format: cell-based, rat; conditions: for activity at 10 µM / IC50: Rattus norvegicus, resazurin; for activity at 10 µM: VSMC, 10 μmol/L, PDGF-BB 20 ng/mL 48 h, read-out: VSMC proliferation at 10 μmol/L (relative to vehicle control, RU); for IC50: PDGF-BB-induced VSMC proliferation
Protocol: Primary VSMC were cultivated in DMEM-F12 (1:1) supplemented with 20% fetal bovine serum, 30 μg/ml gentamicin, and 15 ng/mL amphotericin B at 37°C in an incubator with 5% CO2 flow in a humidified atmosphere. Passages 4 to 12 were used in experiments.
Resazurin conversion to fluorescent resorufin was used as a measure for cell proliferation. Primary VSMC were seeded at 5 × 10^3 cells/well in a 96-well plate to grow for the next 24 h. Cells were then synchronized into G0 phase by serum deprivation for 24 h, pretreated with compounds for 30 min and stimulated with 20 ng/mL PDGF-BB for the next 48 h. After one washing step, cells were incubated in starvation medium containing 10 μg/mL resazurin for 2 h, and changes in fluorescence were monitored in a Tecan Spark (Tecan Group, Männedorf, Switzerland) plate reader at an excitation wavelength of 535 nm and an emission wavelength of 580 nm.

[2] = parameters: method as in Baba et al., 2005; conditions: human; ref Baba et al., 2005; cited from earlier work
[3] = Stability of RA QC samples under different storage conditions; format: physicochemical, rat
[4] = parameters: method as in Nakazawa and Ohsawa, 1998; conditions: rat; ref Nakazawa and Ohsawa, 1998; cited from earlier work
[5] = parameters: method as in earlier work; conditions: rats and humans; ref Nakazawa and Ohsawa, 1998; Baba et al., 2005; Wang et al., 2017; cited from earlier work
VSMC = experiment: Cytotoxicity assay (LDH release) in PDGF-induced VSMC; format: cell-based; conditions: PDGF-BB 24 h
Protocol: Increased lactate dehydrogenase (LDH) release is an indicator for the loss of cell membrane integrity, associated with cell death. Determination of LDH release in response to increasing concentrations of RAME (7), RAET (8), RABU (9), RAOCT (10) and RADOD (11) was performed as previously described ([Liu et al., 2018]).
FIGURE 4 Cytotoxicity of RA esters in PDGF-induced VSMC. VSMC were pretreated with 0.1% DMSO or increasing concentrations of RA esters as indicated for 30 min, stimulated with 20 ng/mL PDGF-BB for 24 h, and released LDH was determined. Digitonin (80 μmol/L) was used as a positive control. Graphs show means ± SD out of 3 (RAME, RAET and RABU) and 4 (RAOCT and RADOD) independent experiments (n.s., not significant, p > 0.05, **p < 0.01, ***p < 0.001, ANOVA/Bonferroni, “vehicle with PDGF-BB” vs. “RA ester with PDGF-BB”).

cultured VSMC = experiment: Intracellular bioavailability of RA esters (LC-MS/MS of cytoplasmic fractions); format: in vitro ADME, rat; conditions: for intracellular concentration as share of applied concentration: 10 μmol/L applied; for intracellular content normalized to protein: at 8.5 h; for intracellularly accumulated concentration: after 0.5 h exposure to 10 μmol/L; for intracellular level relative to those of RAME and RAET: exposure to 10 μmol/L
Protocol: After cells had been lysed and membranes had been removed by centrifugation, as described in the previous section, half of the cytoplasmic fractions were collected in 1.5 mL eppendorf tubes, diluted with methanol in 1:3 ratios and centrifuged at 5,600 × g for 20 min to remove proteins. Supernatants were then subjected to LC-MS/MS analysis to determine the cytoplasmic concentrations of RA esters at each treatment time point up to 16 h PDGF-BB stimulation. Cell culture media were also collected prior to the lysis procedure, diluted with methanol in a manner described above and subjected to LC-MS/MS. […] Intracellular concentrations of RA esters were normalized to protein concentrations at each treatment time point. Details of the quantification method are shown in the Supplementary Material.
FIGURE 6 Esters of rosmarinic acid with longer alkyl groups show increased intracellular bioavailability.

PDGF-BB-induced VSMC = experiment: Cell cycle analysis (PI staining, flow cytometry); format: cell-based, rat; conditions: 3 μmol/L, PDGF-BB 16 h
Protocol: Flow cytometry was used to analyze cell cycle progression. VSMC were seeded at a density of 10^5 cells per well in 12-well plates. After rendered quiescent, cells were treated with increasing concentrations of RAME (7), RAET (8), RABU (9) and RAOCT (10) or with 0.1% DMSO for 30 min followed by stimulation with 20 ng/mL PDGF-BB for 16 h. Cells were collected by trypsinization, washed and resuspended in a hypotonic propidium iodide (PI) solution containing 0.1% (v/v) Triton X-100, 0.1% (w/v) sodium citrate, and 50 μg/mL PI. PI-stained nuclei were analyzed on a FACSCalibur (BD Biosciences, Vienna, Austria) flow cytometer at an excitation wavelength of 488 nm and an emission wavelength of 585 nm.
FIGURE 5 Ethyl, butyl and octyl esters of rosmarinic acid (RA) inhibit the proliferation of VSMC by exerting the same mechanism of action as the methyl ester (A) Quiescent VSMC were treated with 0.1% DMSO or increasing concentrations of RA esters as indicated for 30 min, stimulated with 20 ng/mL PDGF-BB for 16 h and the cell cycle progression was analyzed using PI staining and flow cytometry. […]

CDK2 = system: CDK2; parameters: method as in Liu et al., 2018; conditions: CDK2 kinase activity in vitro; ref Liu et al., 2018; cited from earlier work
CDK4 = system: CDK4; parameters: method as in Liu et al., 2018; conditions: ref Liu et al., 2018; cited from earlier work
[6] = Long-term stability (15 d at -20°C), nominal 2 ng/mL
[7] = Long-term stability (15 d at -20°C), nominal 800 ng/mL
[8] = Post-preparative stability (8 h at 4°C), nominal 2 ng/mL
[9] = Post-preparative stability (8 h at 4°C), nominal 800 ng/mL
[10] = Short-term stability (8 h at room temperature), nominal 2 ng/mL
[11] = Short-term stability (8 h at room temperature), nominal 800 ng/mL
[12] = Stock Solution Stability (8 h at room temperature), nominal 2 ng/mL
[13] = Stock Solution Stability (8 h at room temperature), nominal 800 ng/mL

**Q.** For `O=C(O)/C=C/c1cccc(O)c1` [Compound 3, m-coumaric acid, reference compound], which activity at 10 µM [1] is on record?
**A.** Its activity at 10 µM is 107 ± 15.2%.

**Q.** Which activity at 10 µM [1] does the source give for `COc1cc(/C=C/C(=O)O)ccc1O` [Compound 4, ferulic acid, reference compound] here?
**A.** The activity at 10 µM was 107 ± 17.3%.

**Q.** For `O=C(O)CCc1cccc(O)c1` [Compound 5, m-hydroxyphenylpropionic acid, reference compound], which activity at 10 µM [1] is on record?
**A.** The activity at 10 µM was 120 ± 27.8%.

**Q.** For `O=C(/C=C/c1ccc(O)c(O)c1)O[C@H](Cc1ccc(O)c(O)c1)C(=O)O` [RA (6), Rosmarinic acid], which “cumulative proportions of all RA metabolites detected in urine (of the administered dose)” value [2] is on record?
**A.** The value was ~6%.

**Q.** And the “Measured Concentration” value ([3]; Freeze-thaw stability (three cycles), nominal 2 ng/mL)?
**A.** The value was 2.14 ± 0.09 ng/mL.

**Q.** What about the “Measured Concentration” value ([3]; Freeze-thaw stability (three cycles), nominal 800 ng/mL) of the same compound?
**A.** Its value is 786.67 ± 50.06 ng/mL.

**Q.** What about the “Measured Concentration” value [3, 6] of the same compound?
**A.** Its value is 2.18 ± 0.09 ng/mL.

**Q.** What about the RE [3, 6] of the same compound?
**A.** The RE was 8.83%.

**Q.** And the “Measured Concentration” value [3, 7]?
**A.** Its value is 770.67 ± 50.01 ng/mL.

**Q.** And the RE [3, 7]?
**A.** Its RE is -3.67%.

**Q.** And the “Measured Concentration” value [3, 8]?
**A.** The value was 1.88 ± 0.13 ng/mL.

**Q.** And the RE [3, 8]?
**A.** The RE was -5.83%.

**Q.** And the “Measured Concentration” value [3, 9]?
**A.** Its value is 737.00 ± 8.00 ng/mL.

**Q.** What about the RE [3, 9] of the same compound?
**A.** Its RE is -7.88%.

**Q.** What about the “Measured Concentration” value [3, 10] of the same compound?
**A.** The value was 1.79 ± 0.07 ng/mL.

**Q.** What about the RE [3, 10] of the same compound?
**A.** Its RE is -10.67%.

**Q.** What about the “Measured Concentration” value [3, 11] of the same compound?
**A.** Its value is 762.33 ± 27.75 ng/mL.

**Q.** And the RE [3, 11]?
**A.** Its RE is -4.71%.

**Q.** What about the “Measured Concentration” value [3, 12] of the same compound?
**A.** The value was 1.90 ± 0.08 ng/mL.

**Q.** And the RE [3, 12]?
**A.** Its RE is -4.83%.

**Q.** And the “Measured Concentration” value [3, 13]?
**A.** The value was 782.33 ± 27.43 ng/mL.

**Q.** What about the RE [3, 13] of the same compound?
**A.** Its RE is -2.21%.

**Q.** What about the “cumulative proportions of all RA metabolites detected in urine (of the administered dose)” value [4] of the same compound?
**A.** The value was “about 32%”.

**Q.** What about the activity at 10 µM [1] of the same compound?
**A.** The activity at 10 µM was 78.1 ± 16.7%.

**Q.** What about the “amount of orally ingested RA absorbed” value [5] of the same compound?
**A.** The value was “up to 1.69%”.

**Q.** Which “cell death (LDH release)” value (VSMC; up to 30 μmol/L) does the source give for `CCCCOC(=O)[C@@H](Cc1ccc(O)c(O)c1)OC(=O)/C=C/c1ccc(O)c(O)c1` [RABU (9), rosmarinic acid butyl ester] here?
**A.** The value was “did not induce cell death”.

**Q.** What about the “intracellular concentration as share of applied concentration” value (cultured VSMC) of the same compound?
**A.** The value was 60%.

**Q.** What about the “intracellular content normalized to protein” value (cultured VSMC; 10 μmol/L) of the same compound?
**A.** Its value is “around 2 pmol per µg of protein”.

**Q.** And the intracellularly accumulated concentration (cultured VSMC)?
**A.** The intracellularly accumulated concentration was “about 6 μmol/L”.

**Q.** And the “intracellular level relative to those of RAME and RAET” value (cultured VSMC)?
**A.** Its value is ~3 fold.

**Q.** And the activity at 10 µM [1]?
**A.** Its activity at 10 µM is 30.8 ± 5.2%.

**Q.** What about the IC50 [1] of the same compound?
**A.** Its IC50 is 2.84 µM.

**Q.** What about the “percentage of cells in G0/G1 compared to vehicle control” value (PDGF-BB-induced VSMC) of the same compound?
**A.** Its value is “significantly higher percentage of cells in G0/G1”.

**Q.** For `CCCCCCCCCCCCOC(=O)[C@@H](Cc1ccc(O)c(O)c1)OC(=O)/C=C/c1ccc(O)c(O)c1` [RADOD (11), rosmarinic acid dodecyl ester], which “cell death (LDH release)” value (VSMC; 30 μmol/L) is on record?
**A.** The value was “comparable to that of the positive control, digitonin”.

**Q.** And the VSMC proliferation ([1]; 1 μmol/L (data not shown))?
**A.** The VSMC proliferation was “unaffected”.

**Q.** And the VSMC proliferation ([1]; 3 μmol/L (data not shown))?
**A.** Its VSMC proliferation is “completely abrogated”.

**Q.** And the activity at 10 µM [1]?
**A.** Its activity at 10 µM is 5.4 ± 8.1%.

**Q.** Which results are given for `CCOC(=O)[C@@H](Cc1ccc(O)c(O)c1)OC(=O)/C=C/c1ccc(O)c(O)c1` [RAET (8), rosmarinic acid ethyl ester]?
**A.** cell death (LDH release) (VSMC; up to 30 μmol/L): did not induce cell death; intracellular concentration as share of applied concentration (cultured VSMC): about 20%; intracellular content normalized to protein (cultured VSMC; 10 μmol/L): around 2 pmol per µg of protein; activity at 10 µM [1]: 32.8 ± 8.1%; IC50 [1]: 3.37 µM

**Q.** Which results are given for `COC(=O)[C@@H](Cc1ccc(O)c(O)c1)OC(=O)C=Cc1ccc(O)c(O)c1` [RAME (7), rosmarinic acid methyl ester]?
**A.** IC50 (CDK2): 11.4 µM; cell death (LDH release) (VSMC; up to 30 μmol/L): did not induce cell death; intracellular concentration as share of applied concentration (cultured VSMC): about 20%; intracellular content normalized to protein (cultured VSMC; 10 μmol/L): around 2 pmol per µg of protein; activity of CDK4 (CDK4): affected only at much higher concentrations; activity at 10 µM [1]: 41.5 ± 10.9%; IC50 [1]: 7.9 µM

**Q.** What does the source list for `CCCCCCCCOC(=O)[C@@H](Cc1ccc(O)c(O)c1)OC(=O)/C=C/c1ccc(O)c(O)c1` [RAOCT (10), rosmarinic acid octyl ester]?
**A.** cell death (LDH release) (VSMC; 30 μmol/L): marked but not significant increase in LDH production; LDH release (VSMC; 3 and 10 μmol/L): distinct LDH release, which however did not reach significance; concentration within VSMC (cultured VSMC; 10 μmol/L, 16.5 h time point): remained relatively high; intracellularly accumulated concentration (cultured VSMC): about 6 μmol/L; intracellular level relative to those of RAME and RAET (cultured VSMC): ~3 fold and ~4 fold; activity at 10 µM [1]: 33.8 ± 14.7%; IC50 [1]: 2.22 µM; percentage of cells in G0/G1 compared to vehicle control (PDGF-BB-induced VSMC): significantly higher percentage of cells in G0/G1
